Measured values published in patent US20170190671A1, “BIS(ARYL)CATECHOL DERIVATIVES AS HERBICIDES” (E I DU PONT DE NEMOURS AND COMPANY, priority 2014, published 2017).

How the values were obtained:
Type in all cases: in vivo
[1] = tested on: barnyardgrass (Echinochloa crus-galli); test: Test C preemergence; details: Echinochloa crus-galli, pre-emergence, read-out: Plant response rating, Barnyardgrass
How it was run: (§1)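 Seeds in loam-sand soil were treated preemergence, and plants at the 1- to 4-leaf stage (2-18 cm) in peat-based medium were sprayed postemergence, with test chemicals in a non-phytotoxic solvent containing surfactant. After 13-15 days in a greenhouse, response was rated visually against controls from 0 (no effect) to 100 (complete control).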

[2] = tested on: blackgrass (Alopecurus myosuroides); test: Test C preemergence; details: Alopecurus myosuroides, pre-emergence, 336 h, scale 0 to 100, read-out: Plant response rating, Blackgrass
How it was run: as §1

corn (Zea mays) = test: Test C preemergence; details: Zea mays, pre-emergence, 336 h, scale 0 to 100
How it was run: as §1

[3] = tested on: galium (catchweed bedstraw, Galium aparine); test: Test C preemergence; details: Galium, pre-emergence, 336 h, scale 0 to 100, read-out: Plant response rating, Galium
How it was run: as §1

[4] = tested on: giant foxtail (Setaria faberii); test: Test C preemergence; details: Setaria faberi, pre-emergence, 336 h, scale 0 to 100, read-out: Plant response rating, Foxtail, Giant
How it was run: as §1

[5] = tested on: johnsongrass (Sorghum halepense); test: Test C preemergence; details: Sorghum halepense, pre-emergence, 336 h, scale 0 to 100, read-out: Plant response rating, Johnsongrass
How it was run: as §1

[6] = tested on: lambsquarters (Chenopodium album); test: Test C preemergence; details: Chenopodium album, pre-emergence, 336 h, scale 0 to 100, read-out: Plant response rating, Lambsquarters
How it was run: as §1

[7] = tested on: large (Lg) crabgrass (Digitaria sanguinalis); test: Test C preemergence; details: Digitaria sanguinalis, pre-emergence, 336 h, scale 0 to 100, read-out: Plant response rating, Crabgrass, Large
How it was run: as §1

[8] = tested on: morningglory (Ipomoea coccinea); test: Test C preemergence; details: Ipomoea, pre-emergence, 336 h, scale 0 to 100, read-out: Plant response rating, Morningglory
How it was run: as §1

[9] = tested on: oilseed rape (Brassica napus); test: Test C preemergence; details: Brassica napus, pre-emergence, scale 0 to 100, read-out: Plant response rating, Oilseed Rape
How it was run: as §1

[10] = tested on: pigweed (Amaranthus retroflexus); test: Test C preemergence; details: Amaranthus retroflexus, pre-emergence, 336 h, scale 0 to 100, read-out: Plant response rating, Pigweed
How it was run: as §1

[11] = tested on: ragweed (common ragweed, Ambrosia elatior); test: Test C preemergence; details: Ambrosia artemisiifolia, pre-emergence, 336 h, scale 0 to 100, read-out: Plant response rating, Ragweed
How it was run: as §1

soybean (Glycine max) = test: Test C preemergence; details: Glycine max, pre-emergence, scale 0 to 100, read-out: Plant response rating, Soybean
How it was run: as §1

[12] = tested on: velvetleaf (Abutilon theophrasti); test: Test C preemergence; details: Abutilon theophrasti, pre-emergence, scale 0 to 100, read-out: Plant response rating, Velvetleaf
How it was run: as §1

[13] = tested on: winter wheat (Triticum aestivum); test: Test C preemergence; details: Triticum aestivum, pre-emergence, 336 h, scale 0 to 100, read-out: Plant response rating, Wheat
How it was run: as §1

[14] = tested on: yellow nutsedge (Cyperus esculentus); test: Test C preemergence; details: Cyperus, pre-emergence, 336 h, scale 0 to 100, read-out: Plant response rating, Nutsedge, Yellow
How it was run: as §1

[15] = tested on: galium (catchweed bedstraw, Galium aparine); test: Test C postemergence; details: Galium, post-emergence, 336 h, Postemergence, scale 0 to 100, read-out: Plant response rating, Galium
How it was run: as §1

kochia (Kochia scoparia) = test: Test C postemergence; details: Bassia scoparia, post-emergence, Postemergence, scale 0 to 100, read-out: Plant response rating, Kochia
How it was run: as §1

[16] = tested on: large (Lg) crabgrass (Digitaria sanguinalis); test: Test C postemergence; details: Digitaria sanguinalis, post-emergence, 336 h, Postemergence, scale 0 to 100, read-out: Plant response rating, Crabgrass, Large
How it was run: as §1

[17] = tested on: morningglory (Ipomoea coccinea); test: Test C postemergence; details: Ipomoea, post-emergence, 336 h, Postemergence, scale 0 to 100, read-out: Plant response rating, Morningglory
How it was run: as §1

[18] = tested on: velvetleaf (Abutilon theophrasti); test: Test C postemergence; details: Abutilon theophrasti, post-emergence, Postemergence, scale 0 to 100, read-out: Plant response rating, Velvetleaf
How it was run: as §1

[19] = tested on: winter wheat (Triticum aestivum); test: Test C postemergence; details: Triticum aestivum, post-emergence, 336 h, Postemergence, scale 0 to 100, read-out: Plant response rating, Wheat
How it was run: as §1

FC(F)c1cccc(Oc2ncc(Cl)cn2)c1Oc1ncc(Cl)cn1 [Compound 46, 2,2′-[[3-(difluoromethyl)-1,2-phenylene]bis(oxy)]bis[5-chloropyrimidine]]
pest or weed control at 31 g/ha ([1]; 31 g ai/ha, preemergence, scale 0 to 100): 70% | pest or weed control at 62 g/ha ([1]; 62 g ai/ha, preemergence, scale 0 to 100): 100% | pest or weed control at 125 g/ha ([1]; 125 g ai/ha, preemergence, scale 0 to 100): 100% | pest or weed control at 16 g/ha ([1]; Preemergence, 16 g ai/ha, scale 0 to 100 (0 no effect, 100 complete control)): 15% | pest or weed control at 31 g/ha ([2]; 31 g ai/ha, preemergence): 70% | pest or weed control at 62 g/ha ([2]; 62 g ai/ha, preemergence): 95% | pest or weed control at 125 g/ha ([2]; 125 g ai/ha, preemergence): 95% | pest or weed control at 16 g/ha ([2]; Preemergence, 16 g ai/ha): 0% | Corn plant response rating (crop injury, 0 = no effect, 100 = complete kill) at 31 g/ha (corn (Zea mays); 31 g ai/ha, preemergence): 25% | Corn plant response rating (crop injury, 0 = no effect, 100 = complete kill) at 62 g/ha (corn (Zea mays); 62 g ai/ha, preemergence): 25% | Corn plant response rating (crop injury, 0 = no effect, 100 = complete kill) at 125 g/ha (corn (Zea mays); 125 g ai/ha, preemergence): 90% | Corn plant response rating (crop injury, 0 = no effect, 100 = complete kill) at 16 g/ha (corn (Zea mays); Preemergence, 16 g ai/ha): 10% | pest or weed control at 31 g/ha ([3]; 31 g ai/ha, preemergence): 85% | pest or weed control at 62 g/ha ([3]; 62 g ai/ha, preemergence): 95% | pest or weed control at 125 g/ha ([3]; 125 g ai/ha, preemergence): 100% | pest or weed control at 16 g/ha ([3]; Preemergence, 16 g ai/ha): 5% | pest or weed control at 31 g/ha ([4]; 31 g ai/ha, preemergence): 100% | pest or weed control at 62 g/ha ([4]; 62 g ai/ha, preemergence): 100% | pest or weed control at 125 g/ha ([4]; 125 g ai/ha, preemergence): 100% | pest or weed control at 16 g/ha ([4]; Preemergence, 16 g ai/ha): 75% | pest or weed control at 31 g/ha ([5]; 31 g ai/ha, preemergence): 40% | pest or weed control at 62 g/ha ([5]; 62 g ai/ha, preemergence): 75% | pest or weed control at 125 g/ha ([5]; 125 g ai/ha, preemergence): 100% | pest or weed control at 16 g/ha ([5]; Preemergence, 16 g ai/ha): 5% | pest or weed control at 31 g/ha ([6]; 31 g ai/ha, preemergence): 100% | pest or weed control at 62 g/ha ([6]; 62 g ai/ha, preemergence): 100% | pest or weed control at 125 g/ha ([6]; 125 g ai/ha, preemergence): 100% | pest or weed control at 16 g/ha ([6]; Preemergence, 16 g ai/ha): 75% | pest or weed control at 31 g/ha ([7]; 31 g ai/ha, preemergence): 100% | pest or weed control at 62 g/ha ([7]; 62 g ai/ha, preemergence): 100% | pest or weed control at 125 g/ha ([7]; 125 g ai/ha, preemergence): 100% | pest or weed control at 16 g/ha ([7]; Preemergence, 16 g ai/ha): 100% | pest or weed control at 31 g/ha ([8]; 31 g ai/ha, preemergence): 90% | pest or weed control at 62 g/ha ([8]; 62 g ai/ha, preemergence): 80% | pest or weed control at 125 g/ha ([8]; 125 g ai/ha, preemergence): 100% | pest or weed control at 16 g/ha ([8]; Preemergence, 16 g ai/ha): 20% | plant injury at 31 g/ha ([9]; 31 g ai/ha, preemergence): 90% | plant injury at 62 g/ha ([9]; 62 g ai/ha, preemergence): 98% | plant injury at 125 g/ha ([9]; 125 g ai/ha, preemergence): 100% | plant injury at 16 g/ha ([9]; Preemergence, 16 g ai/ha): 65% | pest or weed control at 31 g/ha ([10]; 31 g ai/ha, preemergence): 100% | pest or weed control at 62 g/ha ([10]; 62 g ai/ha, preemergence): 100% | pest or weed control at 125 g/ha ([10]; 125 g ai/ha, preemergence): 100% | pest or weed control at 16 g/ha ([10]; Preemergence, 16 g ai/ha): 20% | pest or weed control at 31 g/ha ([11]; 31 g ai/ha, preemergence): 25% | pest or weed control at 62 g/ha ([11]; 62 g ai/ha, preemergence): 35% | pest or weed control at 125 g/ha ([11]; 125 g ai/ha, preemergence): 100% | pest or weed control at 16 g/ha ([11]; Preemergence, 16 g ai/ha): 0% | plant injury at 31 g/ha (soybean (Glycine max); 31 g ai/ha, preemergence): 40% | plant injury at 62 g/ha (soybean (Glycine max); 62 g ai/ha, preemergence): 65% | plant injury at 125 g/ha (soybean (Glycine max); 125 g ai/ha, preemergence): 95% | plant injury at 16 g/ha (soybean (Glycine max); Preemergence, 16 g ai/ha): 10% | pest or weed control at 31 g/ha ([12]; 31 g ai/ha, preemergence): 100% | pest or weed control at 62 g/ha ([12]; 62 g ai/ha, preemergence): 95% | pest or weed control at 125 g/ha ([12]; 125 g ai/ha, preemergence): 100% | pest or weed control at 16 g/ha ([12]; Preemergence, 16 g ai/ha): 25% | plant injury at 31 g/ha ([13]; 31 g ai/ha, preemergence): 5% | plant injury at 62 g/ha ([13]; 62 g ai/ha, preemergence): 5% | plant injury at 125 g/ha ([13]; 125 g ai/ha, preemergence): 50% | plant injury at 16 g/ha ([13]; Preemergence, 16 g ai/ha): 0% | pest or weed control at 31 g/ha ([14]; 31 g ai/ha, preemergence): 35% | pest or weed control at 62 g/ha ([14]; 62 g ai/ha, preemergence): 55% | pest or weed control at 125 g/ha ([14]; 125 g ai/ha, preemergence): 80% | pest or weed control at 16 g/ha ([14]; Preemergence, 16 g ai/ha): 0% | pest or weed control at 16 g/ha ([15]; 16 g ai/ha): 60% | pest or weed control at 31 g/ha ([15]; 31 g ai/ha): 60% | pest or weed control at 62 g/ha ([15]; 62 g ai/ha): 60% | pest or weed control at 125 g/ha ([15]; 125 g ai/ha): 65% | pest or weed control at 16 g/ha (kochia (Kochia scoparia); 16 g ai/ha): 70% | pest or weed control at 31 g/ha (kochia (Kochia scoparia); 31 g ai/ha): 80% | pest or weed control at 62 g/ha (kochia (Kochia scoparia); 62 g ai/ha): 95% | pest or weed control at 125 g/ha (kochia (Kochia scoparia); 125 g ai/ha): 100% | pest or weed control at 16 g/ha ([16]; 16 g ai/ha): 5% | pest or weed control at 31 g/ha ([16]; 31 g ai/ha): 5% | pest or weed control at 62 g/ha ([16]; 62 g ai/ha): 10% | pest or weed control at 125 g/ha ([16]; 125 g ai/ha): 10% | pest or weed control at 31 g/ha ([17]; 31 g ai/ha): 80% | pest or weed control at 62 g/ha ([17]; 62 g ai/ha): 85% | pest or weed control at 125 g/ha ([17]; 125 g ai/ha): 90% | pest or weed control at 31 g/ha ([18]; 31 g ai/ha): 25% | pest or weed control at 62 g/ha ([18]; 62 g ai/ha): 55% | pest or weed control at 125 g/ha ([18]; 125 g ai/ha): 65% | plant injury at 31 g/ha ([19]; 31 g ai/ha): 5% | plant injury at 62 g/ha ([19]; 62 g ai/ha): 5% | plant injury at 125 g/ha ([19]; 125 g ai/ha): 10%
